{"source": "patent US6313090A", "about": "“Methods for treating parasitic infection using thiopeptides” (The United States of America as represented by the …, priority 2000, dated 2001)", "system": "MDBKF5D2 cell monolayers", "experiment": "Toxicity testing assay (MTS/PMS, OD 490 nm)", "type": "cell-based", "experimental": "(§1) Toxicity Testing Assay. 200 μl of medium containing drug at the above-mentioned concentrations and positive control preparations [paromomycin/DMSO (2 mg/ml/0.2%)] were introduced into two wells of a 96 well plate containing confluent MDBKF5D2 cell monolayers (ATCC accession number CCL-22) infected with intact C. parvum GCH1 oocysts (5.0×10^4 per well) (43) and two wells without monolayers. The drug was incubated on the monolayers at 37° C. and 8% CO2. At 48 hours, MTS (Owen's solution) and PMS were added to each well at concentrations of 333 μg/ml and 25 μM respectively. The plate was returned to the incubator in the dark to develop for two hours. At two hours, 100 μl of each supernatant was transferred to a new microtiter plate and the optical density (OD) was read in an ELISA plate reader at 490 nm.\n(§2) Percent toxicity was calculated by subtracting the mean drug OD from the medium OD, divided by the medium OD, all of which was then multiplied by 100, as shown in the equation below. Cytotoxicity scores were assigned as follows: 0-5% toxicity=0, 6-25% toxicity=1, 26-50% toxicity=2, 51-75% toxicity=3, and 76-100% toxicity=4. As a standard, cytotoxicity scores of 0 or, 1 were considered acceptable levels of toxicity. Toxicity scores of 2, 3, or 4 were considered as high levels of toxicity to the cell monolayer. [formula]\nas §1, with “containing drugs” for “containing drug”, “monolayers” for “monolayers (ATCC accession number CCL-22)”, “well)” for “well) (43)”, “and 25μM” for “and 25 μM”\nas §2, with “or” for “or,”\nas §1, with “monolayers” for “monolayers (ATCC accession number CCL-22)”, “well)” for “well) (43)”, “25μM” for “25 μM”", "key": {"[1]": {"details": "Table 2, 2 mg/ml, listed as PRM/DMSO"}, "[2]": {"details": "Table 4 Washed at 4 hours, 250 μg/ml"}, "[3]": {"details": "Table 4 Washed at 4 hours, 500 μg/ml"}, "[4]": {"details": "Table 4 Washed at 4 hours, 1000 μg/ml"}, "[5]": {"details": "Table 4 Washed at 4 hours, 2000 μg/ml"}, "[6]": {"details": "Table 5, 2000 μg/ml, drug added at 0 hrs"}, "[7]": {"details": "Table 5, 2000 μg/ml, drug added at 2 hrs"}, "[8]": {"details": "Table 5, 2000 μg/ml, drug added at 4 hrs"}, "[9]": {"details": "Table 5, 2000 μg/ml, drug added at 8 hrs"}, "[10]": {"details": "Table 5, 2000 μg/ml, drug added at 24 hrs"}}}
{"smiles": "NC[C@@H]1O[C@H](O[C@H]2[C@@H](O)[C@H](O[C@@H]3[C@@H](O)[C@H](N)C[C@H](N)[C@H]3O[C@H]3O[C@H](CO)[C@@H](O)[C@H](O)[C@H]3N)O[C@@H]2CO)[C@H](N)[C@@H](O)[C@@H]1O", "note": "[PRM, paromomycin]", "values": [{"measurement": "Tox. O.D.", "setting": "Table 1, 2000 μg/ml", "result": ".868"}, {"measurement": "Toxicity Percent", "setting": "Table 1, 2000 μg/ml", "result": 21.09, "unit": "%"}, {"measurement": "Toxicity Score", "setting": "Table 1, 2000 μg/ml", "result": "1 (6-25% toxicity=1)"}, {"measurement": "Tox. O.D.", "setting": "Table 2, 2 mg/ml", "result": ".954"}, {"measurement": "Toxicity Percent", "setting": "Table 2, 2 mg/ml", "result": -4.38, "unit": "%"}, {"measurement": "Toxicity Score", "setting": "Table 2, 2 mg/ml", "result": "0 (0-5% toxicity=0)"}, {"measurement": "Tox. O.D.", "setting": "[1]", "result": ".963"}, {"measurement": "Toxicity Percent", "setting": "[1]", "result": 4.37, "unit": "%"}, {"measurement": "Tox. O.D.", "setting": "Table 3 Unwashed, 250 μg/ml", "result": 1.121}, {"measurement": "Toxicity Percent", "setting": "Table 3 Unwashed, 250 μg/ml", "result": -7.53, "unit": "%"}, {"measurement": "Toxicity Score", "setting": "Table 3 Unwashed, 250 μg/ml", "result": "0 (0-5% toxicity=0)"}, {"measurement": "Tox. O.D.", "setting": "Table 3 Unwashed, 500 μg/ml", "result": 1.019}, {"measurement": "Toxicity Percent", "setting": "Table 3 Unwashed, 500 μg/ml", "result": 2.30, "unit": "%"}, {"measurement": "Toxicity Score", "setting": "Table 3 Unwashed, 500 μg/ml", "result": "0 (0-5% toxicity=0)"}, {"measurement": "Tox. O.D.", "setting": "Table 3 Unwashed, 1000 μg/ml", "result": ".963"}, {"measurement": "Toxicity Percent", "setting": "Table 3 Unwashed, 1000 μg/ml", "result": 7.67, "unit": "%"}, {"measurement": "Toxicity Score", "setting": "Table 3 Unwashed, 1000 μg/ml", "result": "1 (6-25% toxicity=1)"}, {"measurement": "Tox. O.D.", "setting": "Table 3 Unwashed, 2000 μg/ml", "result": 1.061}, {"measurement": "Toxicity Percent", "setting": "Table 3 Unwashed, 2000 μg/ml", "result": -1.73, "unit": "%"}, {"measurement": "Toxicity Score", "setting": "Table 3 Unwashed, 2000 μg/ml", "result": "0 (0-5% toxicity=0)"}, {"measurement": "Tox. O.D.", "setting": "[2]", "result": 1.121}, {"measurement": "Toxicity Percent", "setting": "[2]", "result": -7.68, "unit": "%"}, {"measurement": "Toxicity Score", "setting": "[2]", "result": "0 (0-5% toxicity=0)"}, {"measurement": "Tox. O.D.", "setting": "[3]", "result": 1.019}, {"measurement": "Toxicity Percent", "setting": "[3]", "result": 2.16, "unit": "%"}, {"measurement": "Toxicity Score", "setting": "[3]", "result": "0 (0-5% toxicity=0)"}, {"measurement": "Tox. O.D.", "setting": "[4]", "result": ".963"}, {"measurement": "Toxicity Percent", "setting": "[4]", "result": 7.54, "unit": "%"}, {"measurement": "Toxicity Score", "setting": "[4]", "result": "1 (6-25% toxicity=1)"}, {"measurement": "Tox. O.D.", "setting": "[5]", "result": 1.061}, {"measurement": "Toxicity Percent", "setting": "[5]", "result": -1.87, "unit": "%"}, {"measurement": "Toxicity Score", "setting": "[5]", "result": "0 (0-5% toxicity=0)"}, {"measurement": "Tox. O.D.", "setting": "[6]", "result": ".962"}, {"measurement": "Toxicity Percent", "setting": "[6]", "result": 16.17, "unit": "%"}, {"measurement": "Toxicity Score", "setting": "[6]", "result": "1 (6-25% toxicity=1)"}, {"measurement": "Tox. O.D.", "setting": "[7]", "result": ".878"}, {"measurement": "Toxicity Percent", "setting": "[7]", "result": 23.49, "unit": "%"}, {"measurement": "Toxicity Score", "setting": "[7]", "result": "1 (6-25% toxicity=1)"}, {"measurement": "Tox. O.D.", "setting": "[8]", "result": ".923"}, {"measurement": "Toxicity Percent", "setting": "[8]", "result": 19.56, "unit": "%"}, {"measurement": "Toxicity Score", "setting": "[8]", "result": "1 (6-25% toxicity=1)"}, {"measurement": "Tox. O.D.", "setting": "[9]", "result": ".871"}, {"measurement": "Toxicity Percent", "setting": "[9]", "result": 24.05, "unit": "%"}, {"measurement": "Toxicity Score", "setting": "[9]", "result": "1 (6-25% toxicity=1)"}, {"measurement": "Tox. O.D.", "setting": "[10]", "result": ".850"}, {"measurement": "Toxicity Percent", "setting": "[10]", "result": 25.93, "unit": "%"}, {"measurement": "Toxicity Score", "setting": "[10]", "result": "1 (6-25% toxicity=1)"}, {"measurement": "Tox. O.D.", "setting": "Table 6, 2 mg/ml", "result": 1.273}, {"measurement": "Toxicity Percent", "setting": "Table 6, 2 mg/ml", "result": 22.74, "unit": "%"}, {"measurement": "Toxicity Score", "setting": "Table 6, 2 mg/ml", "result": "1 (6-25% toxicity=1)"}]}
